{"source": "patent US6670392B2", "about": "“Compositions and methods for the prevention and treatment of human prostate cancer” (Bioadvantex Pharma Inc., priority 2001, dated 2003)", "origin": "cited, not measured here", "details": "synthetic dl-α-tocopherol as standard; cited from earlier work"}
{"smiles": "Cc1c(C)c2c(c(C)c1O)CC[C@@](C)(CCC[C@H](C)CCC[C@H](C)CCCC(C)C)O2", "note": "[d-α-tocopherol]", "values": [{"measurement": "bioactivity relative to synthetic dl-α-tocopherol", "result": 1.49, "unit": "times"}]}
